Drawing on patent US9303044B2, “7-(piperazin-1-yl)-5H-[1,3,4]thiadiazolo[3,2-A]pyrimidin-5-ones for the treatment of thrombotic disorders” (The Rockefeller University, priority 2012, dated 2016), this text covers IC50 for two molecules.

The test system of this assay is platelet aggregation. In words: ADP-induced platelet aggregation assay in citrated platelet-rich plasma. The class given is cell-based. As to conditions: Homo sapiens, initial slopes, read-out: IC50, inhibition of platelet aggregation. As for the experimental part:
The platelet aggregation assay may be conducted by modification of the assay as disclosed in Blue et al., Blood 2008, 111, 1248, the contents of which are incorporated by reference in their entirety. Citrated platelet-rich plasma (PRP), may be generated by the centrifugation of whole blood at 650 g for 4 minutes at 22° C., and may then be incubated in aggregometer cuvettes with Compounds of the Invention (final concentration of 100 μM, 30 μM, 10 μM, 1 μM, 0.30 μM, 0.1 μM, 0.03 μM and 0.01 μM) or controls for 15 minutes at 37° C. After 30 seconds in the aggregometer (Bio/Data PAP8; Horsham, Pa.) at 37° C. with stiffing, ADP (5-20 μM) may be added to induce aggregation and the light transmittance is measured for 8 minutes. The initial slopes of aggregation in the presence of different concentrations of the Compound tested may be used to generate an IC50.

The IC50 is the concentration that gives 50% inhibition. For `NCC(=O)Nc1cc(-c2nn3c(=O)cc(N4CCNCC4)nc3s2)ccn1` [Example 14-B, 2-amino-N-(4-(5-oxo-7-(piperazin-1-yl)-5H-[1,3,4]thiadiazolo[3,2-a]pyrimidin-2-yl)pyridin-2-yl)acetamide], the IC50 came out at 53.6 ± 15.5 nM. Take `NCC(=O)Nc1cncc(-c2nn3c(=O)cc(N4CCNCC4)nc3s2)c1` [Example 14-C, 2-Amino-N-(5-(5-oxo-7-(piperazin-1-yl)-5H-[1,3,4]thiadiazolo[3,2-a]pyrimidin-2-yl)pyridin-3-yl)acetamide]: the IC50 was found to be 62 ± 10 nM.
